Measured values: patent publication US10980765B2, “Isothiocyanatostilbenes as a novel method and product for treating cancer” (BOARD OF SUPERVISORS OF LOUISIANA STATE UNIVERSITY AND …, priority 2015, dated 2021)

Columns and labels:
c-Met [1] = biological target: T1, c-Met (Homo sapiens, UniProt P08581); test: Western blot of c-Met activation (phospho-c-Met) by HGF in cancer cell lines; format: cell-based; set-up: endogenous in cells; host or cells: DU145, PC3, MDA-MB-231, HCC1806
Procedure: (§1) Western blot was used to analyze pMet expression. […] Western blot was used to analyze the indicated proteins.
(§2) Western blot was used to analyze the indicated proteins.
as §2
(§3) Western blot analysis: Cells were grown to ˜70% confluency prior to treatment. Cells were serum-starved in serum-free media for 30 minutes prior to treatment in complete media or serum-free media for the indicated times. Cell lysates were collected in Laemmli (125 mM Tris, 4% SDS, 0.01% bromophenol blue, 30% sucrose) containing 0.5% β-mercaptoethanol and boiled ˜8 minutes. Primary antibodies include: phospho-c-Met (Y1234/1235), phospho-Akt (S473), pEGFR […], pIGF-IRβ (Y1135/1136) (Cell Signaling Technology; Beverly, Mass.); α-actin (Sigma-Aldrich), c-Met (C-28) (Life Technologies). Secondary antibodies include: horseradish peroxidase-conjugated anti-rabbit and anti-mouse (GE Healthcare; Pittsburgh, Pa.). ECL 2 was used for chemiluminescent detection (Thermo Scientific; Rockford, Ill.). Densitometry was calculated using ImageJ (NIH).

c-Met [2] = biological target: T1, c-Met; test: Western blot of pMet in c-Met amplified H1993 lung cancer cells without HGF; format: cell-based; set-up: endogenous in cells; conditions: 5 μM compound; no HGF, constitutive c-Met activation
Procedure: as §1
H1993 cells have c-Met amplification such that they have high levels of pMet, even in the absence of HGF, due to constitutive c-Met dimerization and autophosphorylation.
as §3

wild-type c-Met = wild-type c-Met (Homo sapiens, UniProt P08581); test: Phosphorylation inhibition assay (Z′-LYTE Kinase Assay-Tyr6 Peptide), wild-type c-Met; format: biochemical
Sequence of wild-type c-Met (P08581 25-1390): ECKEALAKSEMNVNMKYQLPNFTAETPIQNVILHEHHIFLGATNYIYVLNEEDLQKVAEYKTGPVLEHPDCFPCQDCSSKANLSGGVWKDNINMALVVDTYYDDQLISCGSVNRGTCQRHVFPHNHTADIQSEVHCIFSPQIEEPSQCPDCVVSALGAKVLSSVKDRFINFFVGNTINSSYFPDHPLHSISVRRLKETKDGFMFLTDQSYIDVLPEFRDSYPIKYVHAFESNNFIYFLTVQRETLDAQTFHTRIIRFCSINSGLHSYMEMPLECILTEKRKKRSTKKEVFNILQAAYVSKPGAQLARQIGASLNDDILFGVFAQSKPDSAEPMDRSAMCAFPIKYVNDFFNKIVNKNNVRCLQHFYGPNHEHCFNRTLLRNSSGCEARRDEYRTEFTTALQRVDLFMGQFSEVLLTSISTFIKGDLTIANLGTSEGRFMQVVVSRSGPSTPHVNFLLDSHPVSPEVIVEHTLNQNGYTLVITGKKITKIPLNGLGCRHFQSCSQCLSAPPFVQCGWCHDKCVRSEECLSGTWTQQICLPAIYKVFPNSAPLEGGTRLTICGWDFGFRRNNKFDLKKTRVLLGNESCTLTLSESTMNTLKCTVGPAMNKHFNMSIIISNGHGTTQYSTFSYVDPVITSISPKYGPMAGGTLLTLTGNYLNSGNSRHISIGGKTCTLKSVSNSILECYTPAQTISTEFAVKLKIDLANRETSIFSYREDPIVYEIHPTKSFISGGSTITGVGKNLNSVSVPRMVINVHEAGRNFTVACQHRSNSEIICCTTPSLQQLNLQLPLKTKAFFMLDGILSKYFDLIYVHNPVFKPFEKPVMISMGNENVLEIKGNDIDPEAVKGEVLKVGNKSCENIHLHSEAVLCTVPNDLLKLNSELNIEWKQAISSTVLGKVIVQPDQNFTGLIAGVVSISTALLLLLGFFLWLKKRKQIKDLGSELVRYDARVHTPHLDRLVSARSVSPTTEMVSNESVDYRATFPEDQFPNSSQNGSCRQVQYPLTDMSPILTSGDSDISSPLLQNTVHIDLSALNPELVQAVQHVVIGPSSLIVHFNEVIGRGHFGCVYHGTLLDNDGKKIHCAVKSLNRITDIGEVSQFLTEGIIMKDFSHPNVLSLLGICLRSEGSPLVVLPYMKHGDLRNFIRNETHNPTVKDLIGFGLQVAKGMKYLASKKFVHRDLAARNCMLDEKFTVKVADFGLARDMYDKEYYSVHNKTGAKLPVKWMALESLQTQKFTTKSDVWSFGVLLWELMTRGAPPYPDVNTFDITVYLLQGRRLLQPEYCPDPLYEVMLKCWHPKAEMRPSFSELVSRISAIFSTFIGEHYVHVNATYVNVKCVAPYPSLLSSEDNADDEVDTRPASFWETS
Procedure: as §1
Phosphorylation inhibition assay: Z′-LYTE™ Kinase Assay-Tyr6 Peptide kit (Invitrogen) was used to assess the ability of tested compounds to inhibit c-Met phosphorylation. […] After 1 hour incubation at room temperature, 10 μl development solution containing site-specific protease was added to each well. Incubation was continued for 1 hour. The reaction was then stopped, and the fluorescent signal ratio of 445 nm (coumarin)/520 nm (fluorescein) was determined on a plate reader (BioTek FLx800™), which reflects the peptide substrate cleavage status and/or the kinase inhibitory activity in the reaction. […] The IC50 value for each compound was calculated by nonlinear regression of log concentration versus % c-Met phosphorylation ±S.E.M., implemented in GraphPad Prism version 5.0 (GraphPad Software, CA, USA).

Cells = test: 2D proliferation (Cell Titer Blue); format: cell-based; conditions: 24-72 hours
Procedure: A TO timepoint was also measured. For each timepoint, cells were exposed to Cell Titer Blue reagent (Promega) for 1 hour at 37° C. 5% CO2. Experiments were performed with quadruplicate replicates. Fluorescence was measured using a BioTek Synergy 4 plate reader with Gen5 software.

EGFR = biological target: T2, EGFR (Homo sapiens, UniProt P00533); test: Western blot of EGFR activation by EGF in DU145 cells; format: cell-based; conditions: 4 μM DIDS or 25 μM H2DIDS; DU145, 100 ng/ml EGF 20 min
T2 construct: endogenous in cells; host or cells: DU145
T2 sequence (P00533 25-1210): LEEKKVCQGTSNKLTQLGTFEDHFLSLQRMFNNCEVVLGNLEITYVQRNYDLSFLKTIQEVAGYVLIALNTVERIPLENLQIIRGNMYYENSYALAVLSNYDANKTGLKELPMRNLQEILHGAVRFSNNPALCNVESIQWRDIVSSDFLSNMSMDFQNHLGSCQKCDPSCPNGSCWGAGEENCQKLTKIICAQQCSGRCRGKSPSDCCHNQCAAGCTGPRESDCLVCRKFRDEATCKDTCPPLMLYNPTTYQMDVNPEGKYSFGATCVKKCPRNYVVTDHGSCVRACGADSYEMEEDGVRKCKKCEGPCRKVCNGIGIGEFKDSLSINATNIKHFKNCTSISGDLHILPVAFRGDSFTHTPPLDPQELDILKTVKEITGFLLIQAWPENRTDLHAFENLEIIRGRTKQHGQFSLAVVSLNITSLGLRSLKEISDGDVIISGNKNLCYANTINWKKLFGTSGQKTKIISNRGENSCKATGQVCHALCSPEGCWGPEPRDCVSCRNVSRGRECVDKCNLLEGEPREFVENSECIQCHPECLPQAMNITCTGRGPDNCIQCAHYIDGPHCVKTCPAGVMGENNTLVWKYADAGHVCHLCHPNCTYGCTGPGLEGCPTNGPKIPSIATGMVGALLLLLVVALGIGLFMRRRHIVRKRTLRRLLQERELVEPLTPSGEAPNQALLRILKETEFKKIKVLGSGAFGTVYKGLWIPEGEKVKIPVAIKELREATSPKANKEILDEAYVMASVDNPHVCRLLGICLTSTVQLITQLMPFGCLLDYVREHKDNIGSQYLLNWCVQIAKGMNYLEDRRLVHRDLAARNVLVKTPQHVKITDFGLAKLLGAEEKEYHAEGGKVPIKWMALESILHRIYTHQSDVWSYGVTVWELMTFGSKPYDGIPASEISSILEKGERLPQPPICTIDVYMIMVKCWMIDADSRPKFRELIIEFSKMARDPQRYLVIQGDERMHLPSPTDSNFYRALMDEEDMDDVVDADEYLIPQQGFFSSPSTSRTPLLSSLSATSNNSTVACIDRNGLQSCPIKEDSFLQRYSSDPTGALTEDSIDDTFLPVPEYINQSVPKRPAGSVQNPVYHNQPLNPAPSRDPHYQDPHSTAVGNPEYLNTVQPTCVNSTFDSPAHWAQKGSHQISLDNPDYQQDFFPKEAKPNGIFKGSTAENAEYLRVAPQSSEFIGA
Procedure: as §3

DU145 cells [3] = test: Wound healing; format: cell-based
Procedure: (§4) Cells were fixed and stained for actin. Representative images are shown. […] Data are shown as mean±S.E.M.; n=3.
(§5) For invasion (FIGS. 4C and 4D), wounded cells were overlaid with Matrigel diluted 1:5 in serum-free media; n=3.
(§6) Wound healing and invasion: DU145 cells were grown to ˜100% confluency prior to wounding with the IncuCyte™ WoundMaker™ (Essen Bioscience; Ann Arbor, Mich.) and washed once with complete media. For invasion, cells were covered with Matrigel diluted 1:5 in serum-free RPMI following wounding. […] Images were taken every 4 hours with the IncuCyte™ ZOOM imaging system (Essen Bioscience). Quadruplicate replicates were used in each experiment. Data are presented as percent wound density ±standard error of the mean (S.E.M.).

DU145 cells [4] = test: Scattering assay; format: cell-based; conditions: 4 μM DIDS or 25 μM H2DIDS
Procedure: as §4
Cells were fixed and stained for actin. Representative images are shown.
Scattering assay: DU145 cells were grown to ˜50% confluency. […] Cells were fixed with 4% paraformaldehyde and stained with Oregon Green 488 phalloidin (Invitrogen; Carlsbad, Calif.). Images were acquired on an Eclipse TE300 inverted microscope (Nikon; Tokyo, Japan) with NIS Elements version 4.13.04 software. Presented images were taken using a 10× objective.

DU145 cells [5] = test: Invasion through Matrigel; format: cell-based; conditions: indicated concentrations; 33 ng/mL HGF; Matrigel 1:5
Procedure: as §5, §6

DU145 spheroids = test: 3D spheroid proliferation; format: cell-based; conditions: 33 ng/mL HGF, Matrigel, 72 hours
Procedure: Data are shown as the percent change in growth from T=0 to T=72 hours. For each of the six independent variables in each bar graph, a representative image at the 72 hour time point is shown. The six corresponding images below each respective bar graph
3D spheroid proliferation: Prior to seeding, cells were incubated with 2.5 ng/μl CellTracker Red (Life Technologies) in complete DMEM lacking Phenol Red for 5 minutes at room temperature then centrifuged at 1000 RPM for 5 minutes. […] The mixture of cells, treatments, and Matrigel in complete media was seeded at 2000 cells/well in a 96 well plate. The plate was centrifuged at 1000 RPM for 3 minutes to collect the cells into the bottom of the plate. Spheroid growth was imaged for up to 80 hours and analyzed for average red object area using the IncuCyte™ ZOOM software. Data are shown as percent change in spheroid growth between TO and […] with HGF normalized to 100% change in growth. Images were captured by the IncuCyte™ ZOOM imaging system and representative 10× images are shown.

IGFR = biological target: T3, IGFR (Homo sapiens, UniProt P08069); test: Western blot of IGFR activation by IGF in DU145 cells; format: cell-based; conditions: 4 μM DIDS or 25 μM H2DIDS; DU145, 100 ng/ml IGF 20 min
T3 construct: endogenous in cells; host or cells: DU145
Procedure: as §3

T1 sequence (P08581 25-1390): as the sequence (P08581 25-1390) above

SMILES: O=[N+]([O-])c1ccc(C=Cc2ccc([N+](=O)[O-])cc2S(=O)(=O)O)c(S(=O)(=O)O)c1 [DNDS, 4,4′-dinitrostilbene-2,2′-disulfonic acid]
- inhibition at 2000 µM (c-Met [1]; DU-145, read-out: inhibition of c-Met): ~90%

SMILES: Cc1[nH]c(/C=C2\C(=O)Nc3ccc(S(=O)(=O)N(C)c4cccc(Cl)c4)cc32)c(C)c1C(=O)N1CCN(C)CC1 [SU11274, reference compound]
- pMet levels in H1993 cells (c-Met [2]): ameliorated pMet levels
- reduction of c-Met phosphorylation (wild-type c-Met; 500 nM compound, kinase assay): ~70%

SMILES: O=S(=O)(O)c1cc(N=C=S)ccc1CCc1ccc(N=C=S)cc1S(=O)(=O)O [H2DIDS, 4,4′-Diisothiocyanatodihydrostilbene-2,2′-disulfonic acid]
- reduction of c-Met activation (c-Met [1]; 8 μM compound, DU145 cells, 33 ng/ml HGF 20 min, serum-free, Western blot densitometry): ~90%
- effective concentrations for reducing c-Met activation in 10% FBS (c-Met [1]; DU145 cells, 33 ng/ml HGF 20 min, 10% FBS RPMI, compared with serum-free): slightly higher effective concentrations
- c-Met inhibitory effective doses (c-Met [1]; multiple cancer cell lines (summary)): low micromolar range
- proliferation in complete media in 2D assay (Cells; complete media): minimal effects
- serum-free proliferation in 2D assay (Cells; serum-free media): minimal effects
- EGFR activation (EGFR): do not significantly reduce
- HGF-induced wound healing (DU145 cells [3]; 4 μM DIDS or 25 μM H2DIDS, 33 ng/ml HGF): significantly reduced
- EGF-mediated wound healing (DU145 cells [3]; 4 μM DIDS or 25 μM H2DIDS, 100 ng/ml EGF): minimal effects
- HGF-induced wound healing, dose response (DU145 cells [3]; indicated concentrations, 33 ng/mL HGF): reduce HGF-induced wound healing in a dose response manner
- HGF-induced cell scattering (DU145 cells [4]; 33 ng/ml HGF overnight): able to reduce HGF-induced
- EGF-induced cell scattering (DU145 cells [4]; 100 ng/ml EGF overnight): not EGF-induced
- HGF-induced invasion through Matrigel (DU145 cells [5]): inhibited HGF-induced invasion through Matrigel in a dose-dependent manner
- pMet levels in H1993 cells (c-Met [2]): much less significant effects
- IC50, wild-type c-Met (wild-type c-Met; cell-free kinase assay, 200 μM ATP): low micromolar range
- IC50 (wild-type c-Met; cell-free kinase assay, 200 μM ATP, read-out: IC50, wild-type c-Met): 3.6 µM
- lowest concentration with some inhibitory effects on HGF-induced spheroid growth (DU145 spheroids): 40 nM
- decrease of HGF-induced DU145 spheroid growth (DU145 spheroids; 5 μM compound): ~60%
- IGFR activation (IGFR): do not significantly reduce

SMILES: CC(=O)Nc1ccc(C=Cc2ccc(N=C=S)cc2S(=O)(=O)O)c(S(=O)(=O)O)c1 [SITS, 4-acetamido-4′-isothiocyanatostilbene-2,2′-disulfonic acid]
- inhibition at 250 µM (c-Met [1]; DU-145, 250 μM compound, DU145 cells, 33 ng/ml HGF 20 min, serum-free): ~90%
